Blank lines part the entries; values can stand above or below the compound they belong to.
Target: T1, human RORgT (Homo sapiens, UniProt P51449)
T1 construct: expressed in transfected cells
T1 sequence (P51449 267-516): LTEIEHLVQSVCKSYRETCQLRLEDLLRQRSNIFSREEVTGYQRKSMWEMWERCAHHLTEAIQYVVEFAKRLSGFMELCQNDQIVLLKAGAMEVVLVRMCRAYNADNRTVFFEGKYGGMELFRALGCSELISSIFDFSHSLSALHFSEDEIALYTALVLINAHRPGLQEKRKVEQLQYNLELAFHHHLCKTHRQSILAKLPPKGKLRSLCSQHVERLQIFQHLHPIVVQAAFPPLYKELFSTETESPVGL
Test: RORgT Gal4 Luciferase Reporter Gene Assay
Type: cell-based
Settings: engineered Jurkat cells overexpressing RORgT (LBD or full length) fused with Gal4 Luc reporter; 18 hours at 37° C.; luminescence
In short: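 Jurkat cells expressing Gal4 Luc with either RORgT LBD (aa267-516) or full-length human RORgT, 10,000 cells/well, treated with compound (40 µM to 0.67 nM final, 3-fold dilutions) for 18 h at 37° C. Steady-Glo luminescence read; inhibition of constitutive activity as % signal-window reduction relative to a control compound.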

Structure (SMILES): CS(=O)(=O)NCC(=O)N1CC[C@@]2(S(=O)(=O)c3ccccc3)c3ccc(OCc4c(Cl)cccc4Cl)cc3CC[C@@H]12 [Example 58, N-{2-[(3aR,9bR)-9b-(benzenesulfonyl)-7-[(2,6-dichlorophenyl)methoxy]-1H,2H,3H,3aH,4H,5H,9bH-benzo[e]indol-3-yl]-2-oxoethyl} methanesulfonamide]
- EC50: 587 nM

Structure (SMILES): CC(=O)N1CCC(C(=O)N2CC[C@@]3(S(=O)(=O)c4ccc(F)cc4)c4ccc(OCc5cc(F)ccc5Cl)cc4CC[C@@H]23)CC1 [Example 174, 1-{4-[(3aR,9bR)-7-[(2-chloro-5-fluorophenyl)methoxy]-9b-(4-fluorobenzenesulfonyl)-1H,2H,3H,3aH,4H,5H,9bH-benzo[e]indole-3-carbonyl]piperidin-1-yl}ethan-1-one]
- EC50: 26 nM

Structure (SMILES): NS(=O)(=O)CC(=O)N1CC[C@@]2(S(=O)(=O)c3ccccc3)c3ccc(OCc4c(F)cccc4Cl)cc3CC[C@@H]12 [Example 148, 2-[(3aR,9bR)-9b-(benzenesulfonyl)-7-[(2-chloro-6-fluorophenyl)methoxy]-1H,2H,3H,3aH,4H,5H,9bH-benzo[e]indol-3-yl]-2-oxoethane-1-sulfonamide]
- EC50: 119 nM

Structure (SMILES): CS(=O)(=O)N1CCC(CCC(=O)N2CC[C@@]3(S(=O)(=O)c4ccccc4)c4ccc(OCc5c(Cl)cccc5Cl)cc4CC[C@@H]23)CC1 [Example 103, 1-[(3aR,9bR)-9b-(benzenesulfonyl)-7-[(2,6-dichlorophenyl)methoxy]-1H,2H,3H,3aH,4H,5H,9bH-benzo[e]indol-3-yl]-3-(1-methanesulfonylpiperidin-4-yl)propan-1-one]
- EC50: 259 nM

Structure (SMILES): O=C(CN1CCS(=O)(=O)CC1)N1CC[C@@]2(S(=O)(=O)c3ccc(F)cc3)c3ccc(OCc4cc(F)c(F)cc4Cl)cc3CC[C@@H]12 [Example 221, 4-{2-[(3aR,9bR)-7-[(2-chloro-4,5-difluorophenyl)methoxy]-9b-(4-fluorobenzenesulfonyl)-1H,2H,3H,3aH,4H,5H,9bH-benzo[e]indol-3-yl]-2-oxoethyl}-1λ^6-thiomorpholine-1,1-dione]
- EC50: 34 nM

Structure (SMILES): CN1CCC(C(=O)N2CC[C@@]3(S(=O)(=O)c4ccc(F)cc4)c4ccc(OCc5cc(Cl)ccc5Cl)cc4CC[C@@H]23)CC1 [Example 204, 4-[(3aR,9bR)-7-[(2,5-dichlorophenyl)methoxy]-9b-(4-fluorobenzenesulfonyl)-1H,2H,3H,3aH,4H,5H,9bH-benzo[e]indole-3-carbonyl]-1-methylpiperidine]
- EC50: 76 nM

Structure (SMILES): Cc1ccccc1Cc1ccc2c(c1)CC[C@H]1N(C(=O)[C@]3(C)CC[C@@H](C(=O)O)CC3)CC[C@@]21S(=O)(=O)c1ccc(F)cc1 [Example 12, (1R,4r)-4-((3aR,9bR)-9b-((4-fluorophenyl)sulfonyl)-7-(2-methylbenzyl)-2,3,3a,4,5,9b-hexahydro-1H-benzo[e]indole-3-carbonyl)-4-methylcyclohexane-1-carboxylic acid]
- EC50: 19 nM

Structure (SMILES): O=C(N1CC(O)C1)N1CC[C@@]2(S(=O)(=O)c3ccccc3)c3ccc(OCc4c(Cl)cccc4Cl)cc3CC[C@@H]12 [Example 88, 1-[(3aR,9bR)-9b-(benzenesulfonyl)-7-[(2,6-dichlorophenyl)methoxy]-1H,2H,3H,3aH,4H,5H,9bH-benzo[e]indole-3-carbonyl] azetidin-3-ol]
- EC50: 301 nM

Structure (SMILES): CC(=O)N1CCC(CN2CC[C@@]3(S(=O)(=O)c4ccc(F)cc4)c4ccc(OCc5c(F)cccc5C(F)(F)F)cc4CC[C@@H]23)CC1 [Example 51, 1-(4-{[(3aR,9bR)-7-{[2-fluoro-6-(trifluoromethyl)phenyl]methoxy} -9b-(4-fluorobenzenesulfonyl)-1H,2H,3H,3aH,4H,5H,9bH-benzo[e]indol-3-yl]methyl}piperidin-1-yl)ethan-1-one]
- EC50: 32 nM

Structure (SMILES): Cc1ccccc1COc1ccc2c(c1)CC[C@H]1N(C(=O)C3CCS(=O)(=O)CC3)CC[C@@]21S(=O)(=O)c1ccccc1 [Example 124, 4-[(3aR,9bR)-9b-(benzenesulfonyl)-7-[(2-methylphenyl)methoxy]-1H,2H,3H,3aH,4H,5H,9bH-benzo[e]indole-3-carbonyl]-1λ^6-thiane-1,1-dione]
- EC50: 34 nM

Structure (SMILES): O=C(NC1CCS(=O)(=O)C1)N1CC[C@@]2(S(=O)(=O)c3ccccc3)c3ccc(OCc4c(Cl)cccc4Cl)cc3CC[C@@H]12 (stereo partly drawn) [Example 101, (3aR,9bR)-9b-(benzenesulfonyl)-7-[(2,6-dichlorophenyl)methoxy]-N-(1,1-dioxo-1λ^6-thiolan-3-yl)-1H,2H,3H,3aH,4H,5H,9bH-benzo[e]indole-3-carboxamide]
- EC50: 62 nM

Structure (SMILES): CS(=O)(=O)N1CC(C(=O)N2CC[C@@]3(S(=O)(=O)c4ccccc4)c4ccc(OCc5c(Cl)cccc5Cl)cc4CC[C@@H]23)C1 [Example 98, 3-[(3aR,9bR)-9b-(benzenesulfonyl)-7-[(2,6-dichlorophenyl)methoxy]-1H,2H,3H,3aH,4H,5H,9bH-benzo[e]indole-3-carbonyl]-1-methanesulfonylazetidine]
- EC50: 19 nM

Structure (SMILES): CS(=O)(=O)CC(=O)N1CC[C@@]2(S(=O)(=O)c3ccc(F)cc3)c3ccc(OCc4cc(Cl)ccc4Cl)cc3CC[C@@H]12 [Example 208, 1-[(3 aR,9bR)-7-[(2,5-dichlorophenyl)methoxy] -9b-(4-fluorobenzenesulfonyl)-1H,2H,3H,3aH,4H,5H,9bH-benzo[e]indol-3-yl]-2-methanesulfonylethan-1-one]
- EC50: 162 nM

Stronger by EC50, values ahead:

- EC50: 18 nM
Structure (SMILES): CS(=O)(=O)N1CC(NC(=O)N2CC[C@@]3(S(=O)(=O)c4ccccc4)c4ccc(OCc5c(Cl)cccc5Cl)cc4CC[C@@H]23)C1 [Example 85, (3aR,9bR)-9b-(benzenesulfonyl)-7-[(2,6-dichlorophenyl)methoxy]-N-(1-methanesulfonylazetidin-3-yl)-1H,2H,3H,3aH,4H,5H,9bH-benzo[e]indole-3-carboxamide]

- EC50: 15 nM
Structure (SMILES): O=C(C1CCS(=O)(=O)CC1)N1CC[C@@]2(S(=O)(=O)c3ccc(F)cc3)c3ccc(OCc4cc(F)c(F)cc4Cl)cc3CC[C@@H]12 [Example 152, 4-[(3aR,9bR)-7-[(2-chloro-4,5-difluorophenyl)methoxy]-9b-(4-fluorobenzenesulfonyl)-1H,2H,3H,3aH,4H,5H,9bH-benzo[e]indole-3-carbonyl]-1λ^6-thiane-1,1-dione]

- EC50: 14 nM
Structure (SMILES): O=C(CN1CCS(=O)(=O)CC1)N1CC[C@@]2(S(=O)(=O)c3ccccc3)c3ccc(OCc4c(F)cccc4Cl)cc3CC[C@@H]12 [Example 139, 4-{2-[(3aR,9bR)-9b-(benzenesulfonyl)-7-[(2-chloro-6-fluorophenyl)methoxy]-1H,2H,3H,3aH,4H,5H,9bH-benzo[e]indol-3-yl]-2-oxoethyl}-1λ^6-thiomorpholine-1,1-dione]

- EC50: 12 nM
Structure (SMILES): N#CCCN1C(=O)CC[C@H]1C(=O)N1CC[C@@]2(S(=O)(=O)c3ccc(F)cc3)c3ccc(OCc4cc(F)c(F)cc4Cl)cc3CC[C@@H]12 [Example 158, 3-[(2S)-2-[(3aR,9bR)-7-[(2-chloro-4,5-difluorophenyl)methoxy]-9b-(4-fluorobenzenesulfonyl)-1H,2H,3H,3aH,4H,5H,9bH-benzo[e]indole-3-carbonyl]-5-oxopyrrolidin-l-yl]propanenitrile]

- EC50: 9.7 nM
Structure (SMILES): O=C(C1CCS(=O)(=O)C1)N1CC[C@@]2(S(=O)(=O)c3ccccc3)c3ccc(OCc4c(F)cccc4Cl)cc3CC[C@@H]12 (stereo partly drawn) [Example 135, 3-[(3aR,9bR)-9b-(benzenesulfonyl)-7-[(2-chloro-6-fluorophenyl)methoxy]-1H,2H,3H,3aH,4H,5H,9bH-benzo[e]indole-3-carbonyl]-1λ^6-thiolane-1,1-dione]

- EC50: 3.1 nM
Structure (SMILES): C[C@]1(C(=O)N2CC[C@@]3(S(=O)(=O)c4ccc(F)cc4)c4ccc(OCc5cc(Cl)ccc5Cl)cc4CC[C@@H]23)CC[C@H](C(=O)O)CC1 [Example 113, (1r,4r)-4-[(3aR,9bR)-7-[(2,5-dichlorophenyl)methoxy]-9b-(4-fluorobenzenesulfonyl)-1H,2H,3H,3aH,4H,5H,9bH-benzo[e]indole-3-carbonyl]-4-methylcyclohexane-1-carboxylic acid]

- EC50: 2.7 nM
Structure (SMILES): Cc1ccccc1Cc1ccc2c(c1)CC[C@H]1N(C(=O)[C@H]3CC[C@H](C(=O)O)CC3)CC[C@@]21S(=O)(=O)c1ccc(F)cc1 [Example 43, (1r,4r)-4-[(3aR,9bR)-9b-(4-fluorobenzenesulfonyl)-7-[(2-methylphenyl)methyl]-1H,2H,3H,3aH,4H,5H,9bH-benzo[e]indole-3-carbonyl]cyclohexane-1-carboxylic acid]

- EC50: 1.9 nM
Structure (SMILES): Cc1ccccc1Cc1ccc2c(c1)CC[C@H]1N(C(=O)C3CCS(=O)(=O)CC3)CC[C@@]21S(=O)(=O)c1ccc(F)cc1 [Example 44, 4-[(3aR,9bR)-9b-(4-fluorobenzenesulfonyl)-7-[(2-methylphenyl)methyl]-1H,2H,3H,3aH,4H,5H,9bH-benzo[e]indole-3-carbonyl]-1λ^6-thiane-1,1-dione]

- EC50: 1.8 nM
Structure (SMILES): O=C(C1CCS(=O)(=O)CC1)N1CC[C@@]2(S(=O)(=O)c3ccc(F)cc3)c3ccc(Cc4ccc(Cl)cc4)cc3CC[C@@H]12 [Example 42, 4-[(3aR,9bR)-7-[(4-chlorophenyl)methyl]-9b-(4-fluorobenzenesulfonyl)-1H,2H,3H,3aH,4H,5H,9bH-benzo[e]indole-3-carbonyl]-1λ^6-thiane-1,1-dione]

- EC50: 1.6 nM
Structure (SMILES): O=C(C1CCS(=O)(=O)CC1)N1CC[C@@]2(S(=O)(=O)c3ccc(F)cc3)c3ccc(Cc4ccccc4)cc3CC[C@@H]12 [Example 31, 4-[(3aR,9bR)-7-benzyl-9b-(4-fluorobenzenesulfonyl)-1H,2H,3H,3aH,4H,5H,9bH-benzo[e]indole-3-carbonyl]-1λ^6-thiane-1,1-dione]

From US20230295087A1, “AGONISTS OF ROR GAMMAt” (BRISTOL-MYERS SQUIBB COMPANY, priority 2019, published 2023)
